Where two headings read alike, the source gives them in different places.
Assays:
PLK3 [1] = molecular target: T1, PLK3 (Homo sapiens, UniProt Q9H4B4); test: Activity against PLK3 (peer review response); format: biochemical; conditions: source not stated
PLK2 [2] = molecular target: T2, PLK2 (Homo sapiens, UniProt Q9NYY3); test: Activity against PLK2 (peer review response); format: biochemical
PLK1 [3] = molecular target: T3, PLK1 (Homo sapiens, UniProt P53350); test: In-house enzymatic activity (peer review response); format: biochemical; conditions: Onvansertib vs. Volasertib
T3 sequence (P53350 whole entry): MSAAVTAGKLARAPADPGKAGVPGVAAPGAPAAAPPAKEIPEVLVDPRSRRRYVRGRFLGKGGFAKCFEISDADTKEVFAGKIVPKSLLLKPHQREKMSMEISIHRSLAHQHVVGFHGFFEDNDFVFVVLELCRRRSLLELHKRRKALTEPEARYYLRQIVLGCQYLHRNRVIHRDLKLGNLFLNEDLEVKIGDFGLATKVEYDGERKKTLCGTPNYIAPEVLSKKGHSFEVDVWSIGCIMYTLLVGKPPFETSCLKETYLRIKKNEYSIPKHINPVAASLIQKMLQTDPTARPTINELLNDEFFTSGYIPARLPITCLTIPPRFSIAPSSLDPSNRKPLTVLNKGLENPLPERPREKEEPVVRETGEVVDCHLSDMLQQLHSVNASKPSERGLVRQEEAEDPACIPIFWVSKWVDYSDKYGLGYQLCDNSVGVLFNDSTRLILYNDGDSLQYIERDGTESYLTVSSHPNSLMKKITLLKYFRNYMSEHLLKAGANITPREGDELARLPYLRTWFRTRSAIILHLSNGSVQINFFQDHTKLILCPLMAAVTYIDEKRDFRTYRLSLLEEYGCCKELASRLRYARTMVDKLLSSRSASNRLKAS

PLK1 [4] = molecular target: T3, PLK1; test: PLK1 kinase ADP-Glo assay (in vitro kinase activity); format: biochemical; set-up: 2 μl of PLK1 enzyme (15 ng/well); conditions: for selectivity for PLK1 compared to other Plks (in words): PLK1 vs PLK2/PLK3
Protocol: (§1) In vitro kinase activity assays were conducted through ADP-Glo assay services provided by Conradbio (Conradbio, China). The protocol for the PLK1 assay is described as follows (protocols for other kinases are very similar). Enzyme, substrate, ATP, and compounds were diluted in a Kinase Buffer composed of 40 mM Tris (pH 7.5), 20 mM MgCl2, 0.1 mg/ml BSA, and 50 μM DTT. In a 384-well low-volume plate, 1 μl of the compound or 5% dimethyl sulfoxide (DMSO), 2 μl of PLK1 enzyme (15 ng/well), and 2 μl of substrate/ATP mix (final concentration: 20 μM ATP, 0.2 μg/μl Casein) were added to each well. The plate was then incubated at 25 °C for 60 min to allow for kinase activity. Following the enzymatic reaction, 5 μl of ADP-Glo^TM Reagent was added to each well, and the plate was incubated at 25 °C for an additional 40 min. Subsequently, 10 μl of Kinase Detection Reagent was added, and the plate was incubated for a final 30 min at 25 °C. Luminescence was recorded with an integration time of 0.5 s.
(§2) IC50 values were calculated using Prism 8 by fitting the following equation:4 Y=Bottom+(Top−Bottom)/(1+10^(logIC50−X)×HillSlope), where X is a log of concentration, Y is a response, and top and bottom are the responses of controls. Each assay was repeated at least three times, and we computed the mean and standard deviation for the values.

PLK3 [5] = molecular target: T1, PLK3; test: PLK3 ADP-Glo kinase assay (selectivity); format: biochemical; conditions: read-out: IC50 against PLK3
Protocol: as §1, §2

FAK kinase = FAK kinase (Homo sapiens, UniProt Q05397); test: FAK ADP-Glo kinase assay (selectivity); format: biochemical; conditions: for IC50: ADP-Glo assay, read-out: IC50 against FAK; for selectivity for PLK1 over FAK: FAK IC50 versus PLK1 IC50
Sequence of FAK kinase (Q05397 whole entry): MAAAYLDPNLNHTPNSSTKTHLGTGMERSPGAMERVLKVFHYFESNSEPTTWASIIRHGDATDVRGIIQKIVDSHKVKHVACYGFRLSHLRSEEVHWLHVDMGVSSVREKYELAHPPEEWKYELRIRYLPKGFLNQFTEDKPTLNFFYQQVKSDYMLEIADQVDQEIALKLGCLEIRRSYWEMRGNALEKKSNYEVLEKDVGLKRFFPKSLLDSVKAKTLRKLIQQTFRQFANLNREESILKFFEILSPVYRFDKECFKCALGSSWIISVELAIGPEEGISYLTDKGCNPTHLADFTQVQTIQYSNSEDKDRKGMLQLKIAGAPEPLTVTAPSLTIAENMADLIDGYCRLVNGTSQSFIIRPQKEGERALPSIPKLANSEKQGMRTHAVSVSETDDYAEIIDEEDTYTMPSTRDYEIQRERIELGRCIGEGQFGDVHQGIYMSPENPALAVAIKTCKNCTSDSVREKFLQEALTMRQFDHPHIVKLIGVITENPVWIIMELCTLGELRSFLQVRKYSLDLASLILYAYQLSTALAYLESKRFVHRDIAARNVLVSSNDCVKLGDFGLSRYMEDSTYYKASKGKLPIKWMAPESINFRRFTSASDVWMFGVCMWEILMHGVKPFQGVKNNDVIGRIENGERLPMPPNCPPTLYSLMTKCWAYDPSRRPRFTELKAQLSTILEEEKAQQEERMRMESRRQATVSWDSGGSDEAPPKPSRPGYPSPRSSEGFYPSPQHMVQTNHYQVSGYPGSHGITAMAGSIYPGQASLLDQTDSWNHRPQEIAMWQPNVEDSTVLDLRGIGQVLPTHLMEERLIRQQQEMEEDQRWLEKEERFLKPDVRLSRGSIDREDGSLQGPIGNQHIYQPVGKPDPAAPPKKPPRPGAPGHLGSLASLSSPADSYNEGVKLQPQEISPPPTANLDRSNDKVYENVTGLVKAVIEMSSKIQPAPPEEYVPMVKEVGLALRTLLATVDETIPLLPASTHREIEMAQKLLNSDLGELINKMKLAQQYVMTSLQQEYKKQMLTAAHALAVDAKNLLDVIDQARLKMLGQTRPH
Protocol: as §1, §2

[6] = Preliminary in vivo pharmacokinetic experiments in mice
PLK2 [7] = molecular target: T2, PLK2; test: PLK2 ADP-Glo kinase assay (selectivity); format: biochemical; conditions: read-out: IC50 against PLK2
Protocol: as §1, §2

HCT116 cell line = test: CellTiter-Glo cell viability assay on HCT116; format: cell-based, human
Protocol: Cell viability assays were conducted through CellTiter-Glo assay services provided by Conradbio (Conradbio, China). The protocol is briefly described as follows. Firstly, when the cell confluence reaches 80%, cells are collected and counted. Subsequently, a cell suspension is diluted, and 80 μl of the suspension is seeded into each well of a 96-well U-bottom plate. The plate is then placed in a 37 °C, 5% CO2 incubator for optimal cell growth. After 24 h of incubation, a 20 μl aliquot of a diluted compound solution is added to specific wells on the plate, 0.5% dimethyl sulfoxide (DMSO) is used as a negative control. Following the compound addition, the plate is returned to the incubator for an additional day. Upon completion of the incubation period, the CellTiter-Glo assay (Promega) is performed according to the manufacturer’s manual. This assay is designed to measure cell viability based on luminescence, providing insights into the impact of the compounds on cellular health. Finally, data calculation is carried out to analyze the results of the CTG assay using Prism 8.

PLK1 [8] = molecular target: T3, PLK1; set-up: method as in ExCAPE-DB [85]; conditions: known PLK1 ligands carrying the core substructures; ref ExCAPE-DB [85]; cited from earlier work
[9] = ADP-Glo assay, mean ± standard deviation, n = 3 replicates, read-out: IC50 against PLK1
[10] = ADP-Glo assay, read-out: IC50 against PLK1 (bound stated in text)
[11] = IC50 with 90% confidence interval, read-out: 90% CI of IC50 against PLK1
[12] = IC50 with 95% confidence interval, read-out: 95% CI of IC50 against PLK1
[13] = IC50 with 99% confidence interval, read-out: 99% CI of IC50 against PLK1

T2 sequence (Q9NYY3 whole entry): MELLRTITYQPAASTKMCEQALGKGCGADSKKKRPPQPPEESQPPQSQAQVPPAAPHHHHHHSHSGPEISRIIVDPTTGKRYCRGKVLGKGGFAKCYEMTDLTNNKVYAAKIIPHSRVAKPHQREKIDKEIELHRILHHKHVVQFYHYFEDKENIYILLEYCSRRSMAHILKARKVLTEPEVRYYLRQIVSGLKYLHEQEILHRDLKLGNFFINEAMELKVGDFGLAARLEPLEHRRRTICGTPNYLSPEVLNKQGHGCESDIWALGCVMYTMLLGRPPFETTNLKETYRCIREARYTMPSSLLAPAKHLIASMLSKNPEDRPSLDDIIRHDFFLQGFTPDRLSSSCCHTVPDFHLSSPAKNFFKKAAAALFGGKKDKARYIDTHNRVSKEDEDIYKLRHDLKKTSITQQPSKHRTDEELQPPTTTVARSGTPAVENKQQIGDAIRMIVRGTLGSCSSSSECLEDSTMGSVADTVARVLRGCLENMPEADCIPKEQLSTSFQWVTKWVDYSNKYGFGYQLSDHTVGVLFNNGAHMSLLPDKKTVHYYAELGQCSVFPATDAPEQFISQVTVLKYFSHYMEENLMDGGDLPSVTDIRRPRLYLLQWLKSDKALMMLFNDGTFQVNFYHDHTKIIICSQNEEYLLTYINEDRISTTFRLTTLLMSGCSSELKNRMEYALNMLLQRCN
T1 sequence (Q9H4B4 whole entry): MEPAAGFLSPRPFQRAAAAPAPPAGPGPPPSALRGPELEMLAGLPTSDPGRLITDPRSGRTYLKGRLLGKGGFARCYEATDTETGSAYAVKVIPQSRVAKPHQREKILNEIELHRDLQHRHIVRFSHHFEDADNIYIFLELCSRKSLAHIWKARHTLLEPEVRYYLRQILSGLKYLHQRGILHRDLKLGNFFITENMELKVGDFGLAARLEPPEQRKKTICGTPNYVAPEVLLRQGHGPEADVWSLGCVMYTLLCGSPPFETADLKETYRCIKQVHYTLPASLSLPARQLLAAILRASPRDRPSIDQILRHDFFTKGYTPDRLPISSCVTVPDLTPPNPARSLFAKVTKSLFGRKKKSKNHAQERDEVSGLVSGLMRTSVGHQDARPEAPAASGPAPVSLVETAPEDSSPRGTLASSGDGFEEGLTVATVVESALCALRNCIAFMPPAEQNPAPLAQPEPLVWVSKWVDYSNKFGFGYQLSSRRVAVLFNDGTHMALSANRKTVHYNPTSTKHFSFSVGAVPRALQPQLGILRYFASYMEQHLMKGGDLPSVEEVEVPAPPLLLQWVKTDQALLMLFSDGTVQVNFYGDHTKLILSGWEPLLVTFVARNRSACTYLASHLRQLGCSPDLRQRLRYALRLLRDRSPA

IC50 (PLK1 [4]; [9]) [nM]	IC50 (PLK1 [4]; [10]) [nM]	IC50 (PLK1 [4]; [11]) [nM]	IC50 (PLK1 [4]; [12]) [nM]	IC50 (PLK1 [4]; [13]) [nM]	SMILES	pXC50 (PLK1 [8])	also measured
5.1	< 1000	5.06 ± 1.64	5.06 ± 1.96	5.06 ± 2.57	COc1ccc(N2CCN(C)CC2)cc1Nc1ncc(C)c(Oc2cccc3cc(C(N)=O)sc23)n1 [IIP0943]	–	selectivity for PLK1 compared to other Plks (in words) (PLK1 [4]): high and excellent; IC50 (PLK3 [5]): > 1000 nM; IC50 (FAK kinase): 264 nM; selectivity for PLK1 over FAK (FAK kinase): over 50 fold; half-life compared to Onvansertib (in words) [6]: prolonged half-life; oral bioavailability compared to Onvansertib ([6]; ratio to Onvansertib): over two-fold; IC50 (PLK2 [7]): > 1000 nM; inhibitory activity in HCT116 cell proliferation (in words) (HCT116 cell line; HCT116 cell line): submicromolar; IC50 (HCT116 cell line; Homo sapiens, HCT-116, CellTiter-Glo, mean ± standard deviation, n = 3 replicates, read-out: IC50 of cell proliferation inhibition, HCT116): 220 ± 3 nM
37.6	< 1000	37.6 ± 3.55	37.6 ± 4.23	37.6 ± 5.56	COc1ccc(N2CCN(C)CC2)cc1Nc1ncc(C(F)(F)F)c(Oc2cccc3[nH]c(C(N)=O)cc23)n1 [IIP0942]	–	selectivity for PLK1 compared to other Plks (in words) (PLK1 [4]): excellent; IC50 (PLK3 [5]): > 1000 nM; IC50 (FAK kinase): 87.4 nM; selectivity for PLK1 over FAK (FAK kinase): over two-fold; IC50 (PLK2 [7]): > 1000 nM
927 ± 129	< 1000	928 ± 122	928 ± 146	928 ± 192	COc1ccc(N2CCN(C)CC2)cc1Nc1ncc(C)c(Oc2ccccc2-n2ccnn2)n1 [IIP0945]	–	–
> 10000	–	–	–	–	COc1ccc(N2CCN(C)CC2)cc1Nc1ncc2ccn(-c3ccccc3-c3nc(C)no3)c2n1 [IIP0944]	–	–

The next lines start with the molecule.

SMILES	IC50 (PLK1 [4]; [9]) [nM]	IC50 (PLK1 [4]; [10]) [nM]	IC50 (PLK1 [4]; [11]) [nM]	IC50 (PLK1 [4]; [12]) [nM]	IC50 (PLK1 [4]; [13]) [nM]	pXC50 (PLK1 [8])	also measured
CC[C@@H]1C(=O)N(C)c2cnc(Nc3ccc(C(=O)N[C@H]4CC[C@H](N5CCN(CC6CC6)CC5)CC4)cc3OC)nc2N1C(C)C [Volasertib]	–	–	–	–	–	–	activity against PLK3 (in words) (PLK3 [1]): low nanomolar; selectivity compared to Onvansertib (in words) (PLK2 [2]; PLK1 vs PLK2 and PLK3): much worse selectivity; activity against PLK2 (in words) (PLK2 [2]; source not stated): low nanomolar; enzymatic activity, in-house experiments (PLK1 [3]): 0.30 nM
CCS(=O)(=O)c1ccc2oc(Nc3ccc(C(C)C)cc3)nc2c1 [PubChem CID 2462953]	–	–	–	–	–	5.6	–
Cc1cc(Oc2ccc(C#N)cc2)nc(NCc2ccccc2)n1 [PubChem CID 1927680]	–	–	–	–	–	5.6	–
COc1cc2c(cc1Nc1nc(Nc3ccsc3C(N)=O)c3cc[nH]c3n1)N(C(=O)CN(C)C)CCC2 [GSK-2110236A]	–	–	–	–	–	7.6	–
